Data from patent publication US20250332173A1, “COMPOUNDS AND METHODS FOR MODULATING NUCLEIC ACID SPLICING” (REMIX THERAPEUTICS INC., priority 2021, published 2025).
Counter-ions that a name gives are not always drawn. Like-named read-outs stand apart in the source and are kept apart here.

What was measured:
MYB mRNA = experiment: RT-qPCR splicing assay, MYB canonical junction (CJ) and alternative junction (AJ) mRNA; format: cell-based, human; conditions: Homo sapiens; for AC50: increase in MYB alternative junction (AJ) mRNA, read-out: MYB AJ AC50
How it was run: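 A673 cells (normalized to PPIA) or K562 cells (normalized to GAPDH or GUSB) were treated 24 h at 37 °C with an 11-point 3-fold dilution series, top 10 uM, DMSO ≤0.25%. Cell lysates went to one-step RT-qPCR measuring canonical- and alternative-junction MYB or HTT transcripts.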

MYB = experiment: HiBiT protein abundance assay, MYB HiBiT K562 cell line; format: cell-based, human; conditions: HiBiT K562 cell line, 24 hours, top dose 10 μM; read-out: Effect on protein abundance, MYB (IC50 category)
How it was run: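 K562 knock-in lines with endogenous HiBiT-tagged target, 10,000 cells/well in IMDM + FBS, treated 24 h at 37° C with 10-point 3-fold dilutions (top 10 μM final; DMSO ≤0.25%). Lytic Nano-Glo HiBiT luminescence normalized to untagged K562 baseline and DMSO controls; IC50 = concentration giving 50% abundance via four-parameter fit.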

[1] = Table 5 panel, canonical junction qPCR, compound concentration having 50% response in CJ decrease, read-out: MYB IC50 (decrease in CJ mRNA levels)
[2] = decrease in MYB canonical junction (CJ) mRNA, RT-qPCR, read-out: MYB CJ IC50

IC50 (MYB mRNA; [1]) [nM]	IC50 (MYB mRNA; [2]) [nM]	IC50 (MYB) [nM]	SMILES	AC50 (MYB mRNA; RT-qPCR) [nM]
100 to 1000	100 to 1000	100 to 1000	CCOC(=O)c1cc(-c2ccc3c(=O)n(C4CCNCC4)ccc3c2)nn2cc(C)nc12 [Compound 529, ethyl 2-methyl-6-[1-oxo-2-(4-piperidyl)-6-isoquinolyl]imidazo[1,2-b]pyridazine-8-carboxylate]	100 to 1000
100 to 1000	100 to 1000	100 to 1000	Cc1cn2nc(-c3ccc4c(=O)n(C5CCNCC5)ccc4c3)cc(-n3ccc(=O)cc3)c2n1 [Compound 551, 6-[2-methyl-8-(4-oxo-1-pyridyl)imidazo[1,2-b]pyridazin-6-yl]-2-(4-piperidyl)isoquinolin-1-one]	100 to 1000
> 10000	> 10000	> 10000	Cc1cn2nc(-c3ccc4c(=O)n(C5CCNCC5)ccc4c3)cc(Cc3nnn[nH]3)c2n1 [Compound 536, 6-[2-methyl-8-(1H-tetrazol-5-ylmethyl)imidazo[1,2-b]pyridazin-6-yl]-2-(4-piperidyl) isoquinolin-1-one]	> 10000
< 100	< 100	< 100	Cc1cn2nc(-c3ccc4c(=O)n(C5CCNCC5)ccc4c3)cc(Oc3cccnc3)c2n1 [Compound 550, 6-[2-methyl-8-(3-pyridyloxy)imidazo[1,2-b]pyridazin-6-yl]-2-(4-piperidyl)isoquinolin-1-one]	< 100
1000 to 10000	1000 to 10000	1000 to 10000	Cc1cn2nc(-c3ccc4c(=O)n(C5CCNCC5)ccc4c3)cc(C(=O)O)c2n1 [Compound 516, 2-methyl-6-[1-oxo-2-(4-piperidyl)-6-isoquinolyl]imidazo[1,2-b]pyridazine-8-carboxylic acid]	1000 to 10000
100 to 1000	100 to 1000	100 to 1000	Cc1cn2cc(-c3ccc4c(=O)n(C5CCNCC5)ccc4c3)cc(C#N)c2n1 [Compound 560, 2-methyl-6-[1-oxo-2-(piperidin-4-yl)isoquinolin-6-yl]imidazo[1,2-a]pyridine-8-carbonitrile]	100 to 1000
100 to 1000	100 to 1000	< 100	Cc1cn2nc(-c3ccc4c(=O)n(C5CCNCC5)ccc4c3)cc(CCO)c2n1 [Compound 533, 6-[8-(2-hydroxyethyl)-2-methyl-imidazo[1,2-b]pyridazin-6-yl]-2-(4-piperidyl)isoquinolin-1-one]	100 to 1000
100 to 1000	100 to 1000	100 to 1000	COC(=O)c1cc(-c2ccc3c(=O)n(C4CCNCC4)ccc3c2)nn2cc(C)nc12 [Compound 517, methyl 2-methyl-6-[1-oxo-2-(4-piperidyl)-6-isoquinolyl]imidazo[1,2-b]pyridazine-8-carboxylate]	100 to 1000
100 to 1000	< 100	< 100	Cc1cn2nc(-c3ccc4c(=O)n(C5CCNCC5)ccc4c3)cc(CO)c2n1 [Compound 525, 6-[8-(hydroxymethyl)-2-methyl-imidazo[1,2-b]pyridazin-6-yl]-2-(4-piperidyl) isoquinolin-1-one]	100 to 1000
< 100	< 100	< 100	Cc1cn2nc(-c3ccc4c(=O)n(C5CCNCC5)ccc4c3)cc(Oc3cccc(F)c3)c2n1 [Compound 545, 6-[8-(3-fluorophenoxy)-2-methyl-imidazo[1,2-b]pyridazin-6-yl]-2-(4-piperidyl)isoquinolin-1-one; hydrochloride]	< 100

The remaining lines, values behind:

SMILES	IC50 (MYB mRNA; [1]) [nM]	IC50 (MYB mRNA; [2]) [nM]	IC50 (MYB) [nM]	AC50 (MYB mRNA; RT-qPCR) [nM]
Cc1cn2cc(-c3cc4ncn(C5CCNCC5)c(=O)c4cc3F)cc(F)c2n1 [Compound 586, 6-fluoro-7-{8-fluoro-2-methylimidazo[1,2-a]pyridin-6-yl}-3-(piperidin-4-yl)quinazolin-4-one]	100 to 1000	100 to 1000	100 to 1000	100 to 1000
Cc1cn2cc(-c3cc(F)c4c(=O)n([C@@H]5CNC[C@@H]5C)ccc4c3)cc(F)c2n1 [Compound 653, 8-fluoro-6-(8-fluoro-2-methyl-imidazo[1,2-a]pyridin-6-yl)-2-[(3S,4S)-4-methylpyrrolidin-3-yl]isoquinolin-1-one]	1000 to 10000	1000 to 10000	1000 to 10000	1000 to 10000
Cc1cn2nc(-c3cc(N)c4c(=O)n([C@H]5CCNC5)ccc4c3)cc(C)c2n1 [Compound 645, 8-amino-6-(2,8-dimethylimidazo[1,2-b]pyridazin-6-yl)-2-[(3S)-pyrrolidin-3-yl]isoquinolin-1-one]	1000 to 10000	1000 to 10000	1000 to 10000	1000 to 10000
Cc1cc(-c2ccc3c(=O)n(C4CC(C)(C)NC(C)(C)C4)cnc3n2)cc2cn(C)nc12 [Compound 179]	> 10000	> 10000	> 10000	> 10000
Cc1cn2cc(-c3cc(O)c4c(=O)n(C5CCNCC5)cnc4c3)cc(F)c2n1 [Compound 587, 7-{8-fluoro-2-methylimidazo[1,2-a]pyridin-6-yl}-5-hydroxy-3-(piperidin-4-yl)quinazolin-4-one]	< 100	< 100	< 100	< 100
Cc1cn2nc(-c3cc4ccn([C@@H]5CCNC5)c(=O)c4cc3O)cc(C)c2n1 [Compound 640, 6-(2,8-dimethylimidazo[1,2-b]pyridazin-6-yl)-7-hydroxy-2-[(3R)-pyrrolidin-3-yl]isoquinolin-1-one]	100 to 1000	100 to 1000	< 100	100 to 1000
Cc1cn2nc(-c3cc(N)c4c(=O)n([C@@H]5CCNC5)ccc4c3)cc(C)c2n1 [Compound 646, 8-amino-6-(2,8-dimethylimidazo[1,2-b]pyridazin-6-yl)-2-[(3R)-pyrrolidin-3-yl]isoquinolin-1-one]	> 10000	1000 to 10000	1000 to 10000	> 10000
Cc1nc2c(C)cc(-c3cc(F)c4c(=O)n(C5CCNC6(CC6)C5)ncc4c3)cc2o1 (centres unmarked) [Compound 555]	100 to 1000	100 to 1000	100 to 1000	100 to 1000
Cc1cn2nc(-c3cc(F)c4c(=O)n(C5CCN(CCF)CC5)ncc4c3)cc(C)c2n1 [Compound 538]	100 to 1000	100 to 1000	100 to 1000	100 to 1000
Cn1cc2cc(-c3ncc4c(=O)n(C5CCNCC5)ccc4n3)c(O)c(F)c2n1 [Compound 1123]	< 100	< 100	< 100	< 100
CCc1cn(C2CCNCC2)c(=O)c2c(F)cc(-c3cc(F)c4nc(C)cn4c3)cc12 [Compound 558, 4-ethyl-8-fluoro-6-{8-fluoro-2-methylimidazo[1,2-a]pyridin-6-yl}-2-(piperidin-4-yl)isoquinolin-1-one]	100 to 1000	100 to 1000	100 to 1000	100 to 1000
CN1CCN(c2ccc3c(=O)n(-c4ccc5cn(C)nc5c4)cnc3c2)CC1 [Compound 178]	> 10000	> 10000	> 10000	> 10000
Cc1cn2nc(-c3cc4ncn(C5CCNCC5)c(=O)c4cc3F)cc(C)c2n1 [Compound 585, 7-{2,8-dimethylimidazo[1,2-b]pyridazin-6-yl}-6-fluoro-3-(piperidin-4-yl)quinazolin-4-one]	1000 to 10000	1000 to 10000	1000 to 10000	1000 to 10000
